Literature values in patent US20120177729A1, “SUSTAINED RELEASE COMPOSITION OF RANOLAZINE” (Lupin Limited, priority 2009, published 2012).

Columns and labels:
[1] = in vivo

COc1ccccc1OCC(O)CN1CCN(CC(=O)Nc2c(C)cccc2C)CC1 (racemic) [Ranolazine, (±)-N-(2,6-dimethylphenyl)-4-[2-hydroxy-3-(2-methoxyphenoxy)propyl]-1-piperazine-acetamide]
Plasma half-life [1]: relatively short | Solubility (low pH that occurs in the stomach): relatively high | Solubility in aqueous solutions (pH above about 6.5): relatively insoluble
